Peptide text beside a SMILES is read from it. * marks the point of attachment. Cbz = O=C(OCc1ccccc1)*
Assays:
[1] = target: T1, Papain (Carica papaya, UniProt P00784); experiment: Inhibition of papaya papain
T1 sequence (P00784 whole entry): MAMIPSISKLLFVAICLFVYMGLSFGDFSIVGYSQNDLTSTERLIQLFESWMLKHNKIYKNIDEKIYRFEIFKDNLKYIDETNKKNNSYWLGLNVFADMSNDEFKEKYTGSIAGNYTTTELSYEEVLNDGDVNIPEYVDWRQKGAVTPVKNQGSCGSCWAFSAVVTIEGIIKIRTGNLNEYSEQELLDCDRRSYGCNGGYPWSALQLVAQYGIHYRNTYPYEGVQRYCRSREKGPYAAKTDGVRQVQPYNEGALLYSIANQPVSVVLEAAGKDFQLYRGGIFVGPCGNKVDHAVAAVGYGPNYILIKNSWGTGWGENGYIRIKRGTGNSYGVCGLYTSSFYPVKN

[2] = target: Cathepsin B (Homo sapiens, UniProt P07858); experiment: Inhibition of cathepsin B
[3] = target: T1, Papain; experiment: Inhibition of papaya papain using BAPNA as substrate assessed as p-nitroaniline release by spectrophotometric analysis
[4] = target: T1, Papain; experiment: Inhibition of papaya papain using methyl hippurate as substrate by titrimetric method

Compound	IC50 [3] [µM]	further results
COC(=O)CNC(=O)[C@H](Cc1ccccc1)NC(=O)OCc1ccccc1 (Cbz-Phe-Gly-OMe)	–	Ki [1]: 2700 µM; Ki [2]: 13500 µM
O=C(O)CNC(=O)[C@H](Cc1ccccc1)NC(=O)OCc1ccccc1 (Cbz-Phe-Gly-OH)	–	Ki [1]: 19600 µM; Ki [2]: 5610 µM
CCOP(=O)(/C=C/C(NC(=O)[C@H](CC(C)C)NC(=O)OC(C)(C)C)c1ccccc1)OCC (mixture of isomers)	> 200	–
CCOP(=O)(/C=C/C(NC(=O)[C@H](Cc1ccccc1)NC(=O)OC(C)(C)C)c1ccccc1)OCC (mixture of isomers)	40	–
CCOP(=O)(/C=C/C(NC(=O)[C@H](CC(C)C)NC(=O)OCc1ccccc1)c1ccccc1)OCC (mixture of isomers)	> 200	–
C[C@H](NC(=O)OCc1ccccc1)C(=O)N[C@@H](Cc1ccccc1)C(=O)OCF	–	Ki [2]: 174000 µM
CCOP(=O)(/C=C/C(NC(=O)[C@H](Cc1ccccc1)NC(=O)OCc1ccccc1)c1ccccc1)OCC (mixture of isomers)	30	–
CCOP(=O)(/C=C/C(NC(=O)[C@H](Cc1c[nH]c2ccccc12)NC(=O)OCc1ccccc1)c1ccccc1)OCC (mixture of isomers)	> 200	–
COC(=O)N[C@@H](Cc1ccccc1)C(=O)NCC#N	–	Ki [4]: 6890 µM
CCOP(=O)(/C=C/C(NC(=O)[C@H](CC(C)C)NC(=O)[C@H](Cc1ccccc1)NC(=O)OC(C)(C)C)c1ccccc1)OCC (mixture of isomers)	132	–
CCOP(=O)(/C=C/C(NC(=O)[C@H](CC(C)C)NC(=O)OCC1c2ccccc2-c2ccccc21)c1ccccc1)OCC (mixture of isomers)	> 200	–
CC(C)[C@H](NC(=O)[C@H](CCCNC(=N)N)NC(=O)N[C@@H](Cc1ccccc1)C(=O)O)C(=O)N[C@H](C=O)CCCNC(=N)N [ANTIPAIN]	–	Ki [1]: 265 µM
CCOP(=O)(/C=C/C(NC(=O)[C@H](Cc1ccccc1)NC(=O)[C@H](Cc1ccccc1)NC(=O)OCc1ccccc1)c1ccccc1)OCC (mixture of isomers)	125	–
CCOP(=O)(/C=C/C(NC(=O)[C@H](Cc1ccccc1)NC(=O)[C@H](Cc1ccccc1)NC(=O)OC(C)(C)C)c1ccccc1)OCC (mixture of isomers)	83	–
CCOP(=O)(/C=C/C(NC(=O)[C@H](Cc1ccc(O)cc1)NC(=O)OCc1ccccc1)c1ccccc1)OCC (mixture of isomers)	54	–
CC[C@H](C)[C@H](NC(=O)[C@H](CCCNC(=N)N)NC(=O)OCc1ccccc1)C(=O)N[C@H](/C=N/NC(N)=O)Cc1ccccc1	–	Ki [1]: 0.023 µM; Ki [2]: 0.5 µM
